Source: paper PMC13622972 (Antiviral research, 2022)
Positions of bridges follow the written chain, without caps; N, C: chain ends. Residues, ends and D or L forms follow the SMILES beside them.

Key:
[1] = system: pseudotyped Ebola virus (EBOV)
[2] = system: wild type Ebola virus Zaire; details: 36 h
[3] = system: pseudotyped Marburg virus (MARV)
[4] = system: pseudotyped Vesicular stomatitis virus (VSV); type: cell-based

SMILES	IC50 [1]	IC50 [2]	IC50 [3]	Activity against the pseudotyped VSV virus [4]
CC(C)[C@@H]1NC(=O)[C@H](Cc2ccccc2)NC(=O)[C@H](Cc2ccccc2)NC(=O)[C@H](CC(=O)O)NC(=O)[C@H](CC(=O)O)NC(=O)CNC(=O)[C@H](CCCCN)NC(=O)[C@@H](NC(=O)[C@@H](N)Cc2c[nH]cn2)CSSC[C@@H](C(=O)N[C@@H](Cc2ccc(O)cc2)C(=O)O)NC(=O)[C@H](C)NC(=O)[C@H](Cc2ccc(O)cc2)NC1=O [erp1c, HCKGDDFFVYACY] (H-HCKGDDFFVYACY-OH; disulfide 2-12 (inferred); N-terminus and C-terminus assumed)	12.3 µM	10.5 µM	28.5 µM	no activities
C[C@@H](O)[C@@H]1NC(=O)CNC(=O)[C@@H](N)CSSC[C@@H](C(=O)O)NC(=O)[C@H](Cc2ccc(O)cc2)NC(=O)[C@H](Cc2ccc(O)cc2)NC(=O)[C@H](Cc2ccc(O)cc2)NC(=O)[C@H](Cc2ccccc2)NC1=O [m78abc, CGTFYYYC] (H-CGTFYYYC-OH; disulfide 1-8 (inferred); N-terminus and C-terminus assumed)	16.1 µM		12.5 µM	no activities
CC(C)[C@@H]1NC(=O)[C@H](Cc2ccccc2)NC(=O)CNC(=O)[C@H](CO)NC(=O)[C@@H](N)CSSC[C@@H](C(=O)O)NC(=O)[C@H](Cc2c[nH]c3ccccc23)NC(=O)[C@H](CCC(=O)O)NC1=O [m191abc, CSGFVEWC] (H-CSGFVEWC-OH; disulfide 1-8 (inferred); N-terminus and C-terminus assumed)	37.2 µM		8.5 µM	no activities
